# Laboratory results published in patent US8173633B2, “Protein kinase C activity enhancer containing alkyl ether derivative or salt thereof” (Toyama Chemical Co., Ltd., priority 2006, dated 2012).
# Molecular target: T1, PKCε (Rattus norvegicus, UniProt P09216)
# T1 construct: The cerebral cortex was removed from 18-day fetuses of Wistar/ST rats; endogenous in cells; host or cells: primary cultured cerebral cortex cells from 18-day fetuses of Wistar/ST rats
# T1 sequence (P09216 1-737): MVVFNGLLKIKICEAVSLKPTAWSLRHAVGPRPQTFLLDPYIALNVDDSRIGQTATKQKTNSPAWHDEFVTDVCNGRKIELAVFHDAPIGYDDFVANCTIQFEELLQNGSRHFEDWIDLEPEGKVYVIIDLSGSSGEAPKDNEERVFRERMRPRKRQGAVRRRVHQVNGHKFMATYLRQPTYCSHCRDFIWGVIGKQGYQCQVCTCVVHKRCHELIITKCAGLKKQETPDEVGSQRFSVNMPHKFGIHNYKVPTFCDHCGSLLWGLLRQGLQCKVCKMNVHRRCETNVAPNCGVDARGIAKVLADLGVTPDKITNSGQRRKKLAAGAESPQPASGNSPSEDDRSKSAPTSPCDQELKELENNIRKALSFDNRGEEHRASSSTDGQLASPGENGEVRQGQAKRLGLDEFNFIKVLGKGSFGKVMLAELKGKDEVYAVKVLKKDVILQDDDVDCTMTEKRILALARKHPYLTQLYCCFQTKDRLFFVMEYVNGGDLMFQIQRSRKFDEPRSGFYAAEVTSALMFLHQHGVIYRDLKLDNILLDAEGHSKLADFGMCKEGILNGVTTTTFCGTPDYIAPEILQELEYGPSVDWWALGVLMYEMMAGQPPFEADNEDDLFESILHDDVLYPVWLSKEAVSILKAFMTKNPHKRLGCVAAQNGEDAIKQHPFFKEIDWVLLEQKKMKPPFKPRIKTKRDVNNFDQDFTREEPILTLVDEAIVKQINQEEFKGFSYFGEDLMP
# Test: PKC activity enhancing effect in cultured cells (PKCε migration from cytosol to membrane fraction, western blotting)
# Type: cell-based, Wistar/ST rats
# Details: cultured fetal rat cerebral cortex cells, 0.1 μmol/L in terms of T-817, FIG. 1
# Description: The PKC activity was determined, according to the method of Etcheberrigaray et al. (Proceedings of the National Academy of Sciences of the United States of America, 2004, Vol. 101, No. 30, p. 11141-11146), as applicable. At the time of activation, PKC migrates from the cytoplasm to membranes. The PKC level in the membrane fraction over that in the cytosol fraction was taken as the index of PKC activation. In this experiment, the activity of PKCε, a known isoform of PKC, was measured.
# Cultured cells were prepared following the method of Hirata et al. (J. Pharmacol. Exp. Ther., 2005, Vol. 314, No. 1, p. 252-259). […]
# On Day 8 from the start of the culturing, T-817MA was added to the cells to a final concentration of 0.1 μmol/L, in terms of T-817, After this addition, the cells were washed with PBS at 0 (untreated), 1, 2 and 4 hours. […] The protein concentration in the cytosol fraction and the membrane fraction was measured, and the protein content in each sample was adjusted to a certain constant level with the extraction buffer or the extraction buffer containing Triton X-100, These samples were then diluted with electrophoresis buffer containing mercaptoethanol (manufactured by Wako Pure Chemical Industries Ltd.) and SDS-PAGE (40 mA, 30 minutes) was carried on 10% polyacrylamide gel. […]
smiles,measurement,setting,value
O=C(O)/C=C\C(=O)O.OC1CN(CCCOCCc2ccc3sccc3c2)C1 [T-817MA],PKCε migration from the cytoplasm to membranes (index of PKC activation),2 hours after treatment,migrated from the cytoplasm to membranes
same,PKCε migration from the cytoplasm to membranes (index of PKC activation),4 hours after treatment,migrated from the cytoplasm to membranes
